Experimental data reported in PubChem BioAssay (NCI).
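Five concentrations, 48 hours, 96-well plates. TGI denotes the concentration required for complete inhibition of growth.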

Assays:
Assay in all cases: NCI-60 cell line screen, 48 h
IGROV1 ovarian = test system: IGROV1 ovarian
SK-MEL-5 melanoma = test system: SK-MEL-5 melanoma
NCI-H460 lung = test system: NCI-H460 lung
HS 578T breast = test system: HS 578T breast
PC-3 prostate = test system: PC-3 prostate
SNB-75 CNS = test system: SNB-75 CNS
T-47D breast = test system: T-47D breast
KM12 colon = test system: KM12 colon
MDA-MB-435 = test system: MDA-MB-435
HL-60(TB) leukemia = test system: HL-60(TB) leukemia
MDA-N = test system: MDA-N
LOX IMVI melanoma = test system: LOX IMVI melanoma
MDA-MB-231 breast = test system: MDA-MB-231 breast
HT29 colon = test system: HT29 colon
NCI-H23 lung = test system: NCI-H23 lung
A549 NSCLC = test system: A549 NSCLC
A498 renal = test system: A498 renal
SK-MEL-28 melanoma = test system: SK-MEL-28 melanoma
M14 melanoma = test system: M14 melanoma
OVCAR-8 ovarian = test system: OVCAR-8 ovarian
OVCAR-5 ovarian = test system: OVCAR-5 ovarian
COLO 205 colon = test system: COLO 205 colon
MALME-3M melanoma = test system: MALME-3M melanoma
NCI-H226 lung = test system: NCI-H226 lung
HCC-2998 colon = test system: HCC-2998 colon
SN12C renal = test system: SN12C renal
SR leukemia = test system: SR leukemia
TK-10 renal = test system: TK-10 renal
786-0 renal = test system: 786-0 renal
K-562 leukemia = test system: K-562 leukemia
UO-31 renal = test system: UO-31 renal
HCT-116 colon = test system: HCT-116 colon
SW-620 colon = test system: SW-620 colon
UACC-257 melanoma = test system: UACC-257 melanoma
U251 CNS = test system: U251 CNS
CAKI-1 renal = test system: CAKI-1 renal
HOP-62 NSCLC = test system: HOP-62 NSCLC
BT-549 breast = test system: BT-549 breast
UACC-62 melanoma = test system: UACC-62 melanoma
NCI/ADR-RES ovarian = test system: NCI/ADR-RES ovarian
OVCAR-4 ovarian = test system: OVCAR-4 ovarian
ACHN renal = test system: ACHN renal
HCT-15 colon = test system: HCT-15 colon
HOP-92 NSCLC = test system: HOP-92 NSCLC
DU-145 prostate = test system: DU-145 prostate
SNB-19 CNS = test system: SNB-19 CNS
EKVX NSCLC = test system: EKVX NSCLC
OVCAR-3 ovarian = test system: OVCAR-3 ovarian
MOLT-4 leukemia = test system: MOLT-4 leukemia
SK-MEL-2 melanoma = test system: SK-MEL-2 melanoma
CCRF-CEM leukemia = test system: CCRF-CEM leukemia
SF-268 CNS = test system: SF-268 CNS
SF-295 CNS = test system: SF-295 CNS
MCF7 breast = test system: MCF7 breast
RPMI-8226 leukemia = test system: RPMI-8226 leukemia
SF-539 CNS = test system: SF-539 CNS
NCI-H522 lung = test system: NCI-H522 lung
SK-OV-3 ovarian = test system: SK-OV-3 ovarian
RXF 393 renal = test system: RXF 393 renal

## COc1ccc(CCCNC(=O)Cc2ccccc2CO)cc1OC
IGROV1 ovarian
  TGI: > 100 µM
SK-MEL-5 melanoma
  TGI: > 100 µM
NCI-H460 lung
  TGI: > 100 µM
HS 578T breast
  TGI: > 100 µM
PC-3 prostate
  TGI: > 100 µM
SNB-75 CNS
  TGI: > 100 µM
T-47D breast
  TGI: > 100 µM
KM12 colon
  TGI: > 100 µM
MDA-MB-435
  TGI: > 100 µM
HL-60(TB) leukemia
  TGI: > 100 µM
MDA-N
  TGI: > 100 µM
LOX IMVI melanoma
  TGI: > 100 µM
MDA-MB-231 breast
  TGI: > 100 µM
HT29 colon
  TGI: > 100 µM
NCI-H23 lung
  TGI: > 100 µM
A549 NSCLC
  TGI: > 100 µM
A498 renal
  TGI: > 100 µM
SK-MEL-28 melanoma
  TGI: > 100 µM
M14 melanoma
  TGI: > 100 µM
OVCAR-8 ovarian
  TGI: > 100 µM
OVCAR-5 ovarian
  TGI: > 100 µM
COLO 205 colon
  TGI: > 100 µM
MALME-3M melanoma
  TGI: > 100 µM
NCI-H226 lung
  TGI: > 100 µM
HCC-2998 colon
  TGI: > 100 µM
SN12C renal
  TGI: > 100 µM
SR leukemia
  TGI: > 100 µM
TK-10 renal
  TGI: > 100 µM
786-0 renal
  TGI: > 100 µM
K-562 leukemia
  TGI: > 100 µM
UO-31 renal
  TGI: > 100 µM
HCT-116 colon
  TGI: > 100 µM
SW-620 colon
  TGI: > 100 µM
UACC-257 melanoma
  TGI: > 100 µM
U251 CNS
  TGI: > 100 µM
CAKI-1 renal
  TGI: > 100 µM
HOP-62 NSCLC
  TGI: > 100 µM
BT-549 breast
  TGI: > 100 µM
UACC-62 melanoma
  TGI: > 100 µM
NCI/ADR-RES ovarian
  TGI: > 100 µM
OVCAR-4 ovarian
  TGI: > 100 µM
ACHN renal
  TGI: > 100 µM
HCT-15 colon
  TGI: > 100 µM
HOP-92 NSCLC
  TGI: > 100 µM
DU-145 prostate
  TGI: > 100 µM
SNB-19 CNS
  TGI: > 100 µM
EKVX NSCLC
  TGI: > 100 µM
OVCAR-3 ovarian
  TGI: > 100 µM
MOLT-4 leukemia
  TGI: > 100 µM
SK-MEL-2 melanoma
  TGI: > 100 µM
CCRF-CEM leukemia
  TGI: > 100 µM

## COc1nc(=O)n(C2CC(F)C(CO)O2)cc1C (centres undefined)
IGROV1 ovarian
  TGI: > 100 µM
SK-MEL-5 melanoma
  TGI: > 100 µM
NCI-H460 lung
  TGI: > 100 µM
SF-268 CNS
  TGI: > 100 µM
HS 578T breast
  TGI: > 100 µM
SF-295 CNS
  TGI: > 100 µM
T-47D breast
  TGI: > 100 µM
KM12 colon
  TGI: > 100 µM
MDA-MB-435
  TGI: > 100 µM
MCF7 breast
  TGI: > 100 µM
HL-60(TB) leukemia
  TGI: > 100 µM
MDA-N
  TGI: > 100 µM
LOX IMVI melanoma
  TGI: > 100 µM
MDA-MB-231 breast
  TGI: > 100 µM
HT29 colon
  TGI: > 100 µM
NCI-H23 lung
  TGI: > 100 µM
A549 NSCLC
  TGI: > 100 µM
SK-MEL-28 melanoma
  TGI: > 100 µM
M14 melanoma
  TGI: > 100 µM
OVCAR-8 ovarian
  TGI: > 100 µM
COLO 205 colon
  TGI: > 100 µM
MALME-3M melanoma
  TGI: > 100 µM
NCI-H226 lung
  TGI: > 100 µM
HCC-2998 colon
  TGI: > 100 µM
SN12C renal
  TGI: > 100 µM
SR leukemia
  TGI: > 100 µM
TK-10 renal
  TGI: > 100 µM
786-0 renal
  TGI: > 100 µM
RPMI-8226 leukemia
  TGI: > 100 µM
K-562 leukemia
  TGI: > 100 µM
UO-31 renal
  TGI: > 100 µM
SF-539 CNS
  TGI: > 100 µM
HCT-116 colon
  TGI: > 100 µM
SW-620 colon
  TGI: > 100 µM
UACC-257 melanoma
  TGI: > 100 µM
U251 CNS
  TGI: > 100 µM
CAKI-1 renal
  TGI: > 100 µM
HOP-62 NSCLC
  TGI: > 100 µM
BT-549 breast
  TGI: > 100 µM
UACC-62 melanoma
  TGI: > 100 µM
NCI/ADR-RES ovarian
  TGI: > 100 µM
OVCAR-4 ovarian
  TGI: > 100 µM
ACHN renal
  TGI: > 100 µM
HCT-15 colon
  TGI: > 100 µM
DU-145 prostate
  TGI: > 100 µM
SNB-19 CNS
  TGI: > 100 µM
NCI-H522 lung
  TGI: > 100 µM
EKVX NSCLC
  TGI: > 100 µM
OVCAR-3 ovarian
  TGI: > 100 µM
MOLT-4 leukemia
  TGI: > 100 µM
CCRF-CEM leukemia
  TGI: > 100 µM

## O=c1ccc2[n+]([O-])c3ccc(O)cc3oc-2c1
IGROV1 ovarian
  TGI: > 100 µM
SK-MEL-5 melanoma
  TGI: 13.8 µM
NCI-H460 lung
  TGI: 38.7 µM
SF-268 CNS
  TGI: > 100 µM
HS 578T breast
  TGI: > 54.1 µM
SF-295 CNS
  TGI: 21.6 µM
PC-3 prostate
  TGI: > 100 µM
SNB-75 CNS
  TGI: > 40.7 µM
SK-OV-3 ovarian
  TGI: > 100 µM
T-47D breast
  TGI: > 100 µM
KM12 colon
  TGI: > 100 µM
MCF7 breast
  TGI: 18.8 µM
HL-60(TB) leukemia
  TGI: > 66.8 µM
MDA-N
  TGI: 3.37 µM
LOX IMVI melanoma
  TGI: 13.8 µM
MDA-MB-231 breast
  TGI: > 92.3 µM
HT29 colon
  TGI: 53.9 µM
NCI-H23 lung
  TGI: 11.4 µM
A549 NSCLC
  TGI: 20.6 µM
A498 renal
  TGI: > 100 µM
SK-MEL-28 melanoma
  TGI: 22.6 µM
M14 melanoma
  TGI: 25.4 µM
OVCAR-8 ovarian
  TGI: > 91.6 µM
OVCAR-5 ovarian
  TGI: 56.6 µM
COLO 205 colon
  TGI: 30.1 µM
MALME-3M melanoma
  TGI: 18.3 µM
NCI-H226 lung
  TGI: > 66.8 µM
HCC-2998 colon
  TGI: > 100 µM
SN12C renal
  TGI: 36.7 µM
SR leukemia
  TGI: > 64 µM
TK-10 renal
  TGI: > 85.2 µM
786-0 renal
  TGI: 27.2 µM
RPMI-8226 leukemia
  TGI: > 87 µM
RXF 393 renal
  TGI: > 100 µM
K-562 leukemia
  TGI: > 100 µM
UO-31 renal
  TGI: 8 µM
SF-539 CNS
  TGI: > 100 µM
HCT-116 colon
  TGI: > 100 µM
SW-620 colon
  TGI: 48 µM
UACC-257 melanoma
  TGI: 26 µM
U251 CNS
  TGI: > 100 µM
CAKI-1 renal
  TGI: > 100 µM
HOP-62 NSCLC
  TGI: 67 µM
BT-549 breast
  TGI: 25.9 µM
UACC-62 melanoma
  TGI: 7.35 µM
NCI/ADR-RES ovarian
  TGI: 67.5 µM
OVCAR-4 ovarian
  TGI: 97 µM
ACHN renal
  TGI: > 37.7 µM
HCT-15 colon
  TGI: > 47.9 µM
HOP-92 NSCLC
  TGI: > 100 µM
DU-145 prostate
  TGI: 30.8 µM
NCI-H522 lung
  TGI: 36.6 µM
EKVX NSCLC
  TGI: > 100 µM
OVCAR-3 ovarian
  TGI: > 80.3 µM
MOLT-4 leukemia
  TGI: 57 µM
SK-MEL-2 melanoma
  TGI: 31.5 µM
CCRF-CEM leukemia
  TGI: > 73 µM
